Measured values: patent US20070148124A1, “Cellulose and acrylic based polymers and the use thereof for the treatment of infectious diseases” (priority 2004, published 2007)
Read-outs that look alike come from different tables or passages of the source.

Key:
[1] = test system: HIV-1SKI; experiment: CD4-dependent HIV transmission inhibition assay (cell-associated virus, GHOST cells); assay type: cell-based
[2] = test system: HIV-1IIIB; experiment: microbe, parasite or virus in culture; assay type: cell-based
[3] = test system: HIV-1BaL; experiment: Virus attachment assay; assay type: cell-based; conditions: Assay Virus HIV-1BaL
[4] = test system: HIV-1JR-CSF; experiment: CD4-dependent HIV transmission inhibition assay (cell-associated virus, GHOST cells); assay type: cell-based
[5] = test system: MAGI-R5 or HeLa CD4 LTR β-gal cells
[6] = in vitro; conditions: human
[7] = in vitro; conditions: human; remark: listed apart in the source
[8] = in vitro; conditions: human; remark: listed apart in the source
[9] = test system: CXCR4 tropic (CMU06) strain of HIV-1; experiment: HIV-1 infection and replication in PBMCs, RT activity; assay type: cell-based; conditions: seven days, CXCR4 virus
[10] = test system: CCR5 tropic (JRCSF) strain of HIV-1; experiment: as above; assay type: cell-based; conditions: seven days, CCR5 virus
[11] = test system: dual tropic (BR/92/014) strain of HIV-1; experiment: as above; assay type: cell-based; conditions: seven days, dual tropic virus
[12] = test system: GHOST cells
[13] = test system: HeLa CD4 LTR β-gal cells
[14] = cited from earlier work
[15] = Human immunodeficiency virus 1, CXCR4 Virus HIV-1SKI, cell-associated
[16] = Human immunodeficiency virus 1, Assay Virus HIV-1JR-CSF
[17] = CXCR4 Virus HIV-1SKI, cell-associated

In the case of `c1cc(CN2CCCNCCNCCCNCC2)ccc1CN1CCCNCCNCCCNCC1` [AMD 3100], the IC50 ([1]; Human immunodeficiency virus 1, Pre-incubation pH: Standard Assay) is reported as 10 nM, the IC50 ([1]; Human immunodeficiency virus 1, pH 4, Pre-incubation pH 4.0) is reported as 1 nM and the IC50 ([1]; Human immunodeficiency virus 1, pH 5.85, Pre-incubation pH 5.85) is reported as 6 nM. For the same compound, the IC50 ([1]; Human immunodeficiency virus 1, pH 6.5, Pre-incubation pH 6.5) was 80 nM, the IC50 [1, 15] was 5 nM and the IC90 [1, 15] was 60 nM. The IC50 ([2]; Human immunodeficiency virus 1) was 1 nM, the IC90 ([2]; Human immunodeficiency virus 1) was 8 nM and the IC50 ([3]; Human immunodeficiency virus 1) was 3.79 µM. For the same compound, the IC90 ([3]; Human immunodeficiency virus 1) was > 10000 nM, the IC50 [4, 16] was > 10000 nM and the IC90 [4, 16] was > 10000 nM. The CC50 ([5]; human) was > 10 µM, the CC50 at 4 h [6] was > 10 µM and the CC50 at 4 h ([6]; pH 4) was 4.03 µM. The CC50 at 4 h ([6]; pH 5.85) was > 10 µM, the CC50 at 4 h ([6]; pH 6.5) was > 10 µM and the CC50 [7] was > 10 µM. For the same compound, the CC50 [8] was > 10 µM.
With `Cc1cn([C@H]2C[C@H](N=[N+]=[N-])[C@@H](CO)O2)c(=O)[nH]c1=O` [AZT] the IC50 [9] was < 0.1 nM, the IC50 [10] was 1.48 nM and the IC50 [11] was 0.27 nM.
For `Cc1ccc(-c2ccc3c(c2)C=C(C(=O)Nc2ccc(C[N+](C)(C)C4CCOCC4)cc2)CCC3)cc1` [TAK 779], the IC50 [1, 17] was > 10 nM, the IC90 [1, 17] was > 10 nM and the IC50 ([2]; Assay Virus HIV-1IIIB, read-out: IC50) was > 200 nM. For the same compound, the IC90 ([2]; Assay Virus HIV-1IIIB, read-out: IC90) was > 200 nM, the IC50 [3] was < 2e-06 µM and the IC90 [3] was 0.04 nM. For the same compound, the IC50 ([4]; Assay Virus HIV-1JR-CSF) was 0.002 nM, the IC90 ([4]; Assay Virus HIV-1JR-CSF) was 0.55 nM and the CC50 [12] was > 10 nM. For the same compound, the CC50 [5] was > 0.2 µM and the CC50 [13] was > 200 nM.
For D-mallic acid, L-mallic acid, the “pKa Values (first value)” value ([14]; room temperature) is listed as 3.4 and the “pKa Values (second value)” value ([14]; room temperature) is listed as 5.2.
Work on “hydroxypropyl methylcellulose trimellitate [HPMCT]” yielded a CC50 ([12]; pH 4) of 0.38%, a CC50 ([12]; pH 5.85) of 0.38% and a CC50 ([12]; pH 6.5) of 0.39%.
In the case of phthalate, the “pKa of the second (remaining dissociable) carboxylic acid group” value ([14]; moiety on the cellulose backbone) is listed as 5.28.
